Assay results: PubChem BioAssay AID1417 (Emory University Molecular Libraries Screening Center, 2008)
pIC50: −log10 of the molar value.

Biological target: Induced myeloid leukemia cell differentiation protein Mcl-1 (Homo sapiens) (UniProt Q07820)
Assay: Mcl-1/Noxa binding inhibitor potency, dose response, biochemical, TR-FRET (AID 1417)
Details: Mcl-1/Noxa peptide interaction, cell-free TR-FRET (terbium/rhodamine), 2 h; measured here: absolute IC50

Induced myeloid leukemia cell differentiation protein Mcl-1 (Homo sapiens), sequence (Q07820 whole entry, looked up): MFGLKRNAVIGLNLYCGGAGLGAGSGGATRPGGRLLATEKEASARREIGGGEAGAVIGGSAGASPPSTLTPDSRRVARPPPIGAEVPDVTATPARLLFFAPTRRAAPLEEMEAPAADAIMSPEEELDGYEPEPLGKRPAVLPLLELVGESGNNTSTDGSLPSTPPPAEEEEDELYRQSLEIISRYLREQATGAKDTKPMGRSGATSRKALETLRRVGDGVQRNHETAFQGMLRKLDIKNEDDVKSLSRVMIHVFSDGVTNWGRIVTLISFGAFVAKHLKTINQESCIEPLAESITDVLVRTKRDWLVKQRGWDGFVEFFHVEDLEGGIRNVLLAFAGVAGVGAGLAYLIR

SMILES	pIC50
C/C=C\C=C/C(=O)Nc1cccc(C2=NOC3(C2)C[C@@H](C(N)=O)N(C(=O)c2ccccc2)C3)c1 (stereo not given in full)	4.29
COc1ccc(CCNC(=O)COC(=O)Cc2cccc3ccccc23)cc1	< 4.27
CCN(/N=C/c1ccc(N(C)C)cc1)c1nc2ccccc2[nH]1	5.69
COc1cccc(C(Nc2ccccn2)c2oc(CO)cc(=O)c2O)c1 (stereo not given)	> 6.40
O=C(COC(=O)Cn1cnc2ccccc21)Nc1ccc2c(c1)C(=O)c1ccccc1C2=O	5.59
O=C(N/N=C/c1ccncc1)c1cc([N+](=O)[O-])cc([N+](=O)[O-])c1O	5.60
CCOC(=O)C1CCCN(c2ccc(NC(=O)c3snc4c(=O)[nH]c(C)nc34)cc2)C1 (stereo not given)	5.18
NC(=S)n1[nH]c(-c2ccc([N+](=O)[O-])cc2)c(N=Nc2ccccc2[N+](=O)[O-])c1=O	> 6.40
COc1cc(/C=N/NC(=O)c2ccc(CN3C(=O)c4cccc5cccc3c45)cc2)cc(OC)c1O	5.46
CSc1nc(N(C)CCO)c2sc3nc(-c4ccco4)c4c(c3c2n1)CCC4	> 6.40
COc1cc(OC)c2c(O)c3c(c(-c4c5c(c(O)c6c(OC)cc(OC)cc46)CO[C@@H](C)[C@H]5O)c2c1)[C@H](O)[C@H](C)OC3	< 4.27
NS(=O)(=O)c1ccc(-c2ccc(/C=C3\SC(=S)N(C4CCS(=O)(=O)C4)C3=O)o2)cc1 (stereo not given)	5.59
Cc1ccc(/C=c2\sc3nc(-c4ccccc4Br)nn3c2=O)o1	5.36
CCOC(=O)c1c(C)oc2c1c(C(c1cccnc1)N1CCOCC1)c(O)c1ccccc12 (stereo not given)	> 6.40
COc1ccc(/C=C2\C(=O)N(c3c(Cl)cc(Cl)cc3Cl)N=C2NC(=O)c2cccc([N+](=O)[O-])c2)cc1	5.53
CC(C)Oc1ccc(C(=O)Nc2ccc(N(C)C)cc2)cc1	< 4.27
O=C(Nc1ccc2nc3ccccc3nc2c1)c1ccccc1	4.53
Cc1cc(N(CCO)CCO)ccc1C(c1ccc(N(CCO)CCO)cc1C)c1ccccc1Cl	5.95
Cc1ccc(-n2cccc2/C=C2\C(=N)N3N=C(c4ccco4)SC3=NC2=O)cc1	5.81
CN(C)c1ccc(Nc2nc(N)c([N+](=O)[O-])c(N3CCOCC3)n2)cc1	> 6.40
O=C(/C=C/c1cccnc1)c1ccc(O)cc1	< 4.27
O=C(Cc1ccc(S(=O)(=O)N2CCOCC2)s1)Nc1nc2c(s1)CCCC2	5.29
O=C(O)c1ccccc1N/N=C/c1c(Sc2nnnn2-c2ccccc2)nc2ccccn2c1=O	> 6.40
O=C(O)C1Nc2c(C(=O)N3CCOCC3)cccc2C2C=CCC12 (stereo not given)	< 4.27
CN(C)c1ccc(/C=C/c2ccc3c4ccccc4ccc3[n+]2-c2ccccc2)cc1	< 4.27
COc1cc(/C=C2/C(=O)c3cccc([N+](=O)[O-])c3C2=O)c(Br)cc1O	> 6.40
Oc1ccccc1NCC(O)Cn1ccc2ccccc21 (stereo not given)	5.28

SMILES	pIC50
O=C(O)CSc1cc(C(=O)c2ccccc2O)cn2c(=O)c3c4c(sc3nc12)CCCC4	5.47
COc1ccc2c(c1)CC/C(=C\Nc1ccc3c(c1)OCO3)C2=O	< 4.27
CCOC(=O)c1cc(-c2ccc(/C=C3/C(=O)NC(=O)C(C#N)=C3C)o2)ccc1Cl	> 6.40
Nc1c(O)ccc2c1C(=O)c1ccccc1C2=O	4.36
CNCc1ccccc1OCc1ccccc1F	5.28
CCN(CC)c1ccc(NC(=O)c2ccc3c(c2)c(C)c(C)n3C)cc1	< 4.27
O=C(NN1C(=O)/C(=C/C=C/c2ccco2)SC1=S)c1ccncc1	5.65
CCOC(=O)c1sc2nc3c(SCCC(=O)O)cc(C(=O)c4cc(OC)ccc4O)cn3c(=O)c2c1C	6.02
O=C(NC1CCCCC1)c1sc(=S)n2c1[nH]c(=O)c1ccccc12	4.80
O=C(O)c1ccc(N/N=C/c2ccc(OC(=O)c3cccc(Cl)c3)cc2)cc1	5.14
Cc1cc(C)c(S(=O)(=O)/N=C2/C=C(SCC(=O)O)C(=O)c3ccccc32)cc1C	> 6.40
CCOc1c(Cl)cc(CNc2ccc(N3CCCC3)cc2)cc1OC	5.80
C=CCOC(=O)c1cc(-c2ccc(/C=C3\C(=O)NC(=O)C(C#N)=C3C)o2)ccc1Cl	> 6.40
NC(=S)n1[nH]c(-c2ccc([N+](=O)[O-])cc2)c(N=Nc2cccc([N+](=O)[O-])c2)c1=O	5.78
O=C(COC(=O)c1ccc2c(c1)C(=O)N(Cc1ccncc1)C2=O)Nc1ccccc1[N+](=O)[O-]	5.60
CCn1c(C)nc2cc(C(=O)N/N=C/c3ccc(O)c(O)c3O)ccc21	> 6.40
O=C(Nc1ccc(S(=O)(=O)Nc2nccs2)cc1)/C(=C/c1ccccc1Cl)NC(=O)c1ccccc1	5.53
Oc1ccc(/C=N/Nc2ccnc3cc(Cl)ccc23)c(O)c1	> 6.40
Cc1ccc(-c2nc3c(c(=O)[nH]c(=O)n3Cc3ccccc3)n2C)o1	> 6.40
O=C(Nc1ccccc1Cl)c1cnccn1	< 4.27
COc1ccc(-c2ccc3c(n2)sc2c(=O)[nH]c(=O)[nH]c23)cc1OC	> 6.40
CN=c1scc(C)n1/N=C/c1ccc(O)c(O)c1O	5.75
Oc1ccc(-c2cn3c(n2)SCC3)cc1O	5.71
COc1cccc(C(=O)Nc2ccc3c(c2)C(=O)c2ccccc2C3=O)c1	5.67
O=C1C(Cl)=C(Nc2ccc3cn[nH]c3c2)C(=O)c2ccccc21	> 6.40
COCCNC(=O)Nc1ccc2nc(-c3ccco3)c(-c3ccco3)nc2c1	> 6.40
CS(=O)(=O)C1=NSC2=NC(=O)/C(=C\c3cccn3-c3ccc(Cl)cc3)C(=N)N21	5.43

SMILES	pIC50
CCN(CC)c1ccc(NC(=O)/C=C\c2ccccc2Cl)cc1	> 6.40
N#Cc1c2nc3ccccc3nc2n2cc(NC(=O)c3ccc(F)cc3)ccc12	> 6.40
COCCN1Cc2cccc(C(=O)Nc3cccc(C)c3C)c2C1=O	< 4.27
O=C(OCC(=O)N1CCN(C(=O)c2ccco2)CC1)c1cc(-c2ccco2)nc2ccccc12	5.72
O=C(N/N=C/c1ccco1)c1cccc(N2Cc3ccccc3C2)c1	5.46
Cc1cc(C)c(S(=O)(=O)Nc2cc(SCC(=O)O)c(O)c3ccccc23)cc1C	> 6.40
O=C(CSc1nnc(SCc2ccccc2)s1)N/N=C/C=C/c1ccco1	5.31
COc1cc(/C=C2\SC(=O)N(Cc3ccc(Cl)cc3)C2=O)cc([N+](=O)[O-])c1O	5.15
O=C(Nc1ccc2nc(-c3ccco3)c(-c3ccco3)nc2c1)NC1CC1	5.88
Cc1cc(C)c2c(c1)C1C=CCC1C(c1ccc(S(=O)(=O)N3CCOCC3)cc1)N2 (stereo not given)	5.69
COc1ccc(O)c(N)c1	> 6.40
O=C(N/N=C/c1ccc(O)c(O)c1)c1ccc(CSc2cccc3cccnc23)cc1	5.51
Oc1c(Cl)cc(Cl)cc1Sc1cc(Cl)cc(Cl)c1O	5.78
CCN(CC)C(=O)COC(=O)c1cc(-c2ccco2)nc2ccccc12	> 6.40
CCC(=O)Oc1ccc2c(=O)c(-c3ccc4ccccc4n3)c(CC)oc2c1C	< 4.27
COc1ccc(C(=O)N2c3ccccc3CC2C)cc1OC (stereo not given)	< 4.27
C=CCn1c(C)cc(C(=O)Cn2ncc(Cl)c(Cl)c2=O)c1C	5.51
O=C(NC1CC1)c1cc(-c2ccco2)nc2ccccc12	> 6.40
Cc1cc2c(C(C)C)c(O)c(O)c(C=O)c2c(O)c1-c1c(C)cc2c(C(C)C)c(O)c(O)c(C=O)c2c1O	> 6.40
Cc1ccc2c(c1)C1C=CCC1C(C(=O)O)N2 (stereo not given)	> 6.40
CCN(CC)c1ccc(NC(=O)Nc2cccc(C(C)=O)c2)cc1	< 4.27
O=C1C2C3C=CC(C2C(=O)N1c1cccc(O)c1)C1C2C(=O)N(c4cccc(O)c4)C(=O)C2C31 (stereo not given)	< 4.27
O=C1Nc2ccc(Br)cc2/C1=C/C(=O)c1ccc2c(c1)OCO2	5.86
S=c1[nH]nc(-c2cc(-c3ccccc3)n[nH]2)n1/N=C/c1c2ccccc2cc2ccccc12	< 4.27
COc1ccc(N=C2S/C(=C\c3ccc(OC(C)C(=O)O)c(OC)c3)C(=O)N2CCc2c[nH]c3ccccc23)cc1 (stereo not given)	5.14
O=C(COC(=O)c1c2c(nc3ccccc13)/C(=C/c1ccco1)CC2)NC1CCCC1	5.63
Cc1ccc(-n2c(O)c(C=Nc3ccccc3-c3n[nH]c(=S)[nH]c3=O)c3ccccc3c2=O)cc1C	5.56

SMILES	pIC50
Nc1ccc(Cc2ccc(N)c(O)c2)cc1O	> 6.40
COc1cccc2c(C)c(C(=O)O)[nH]c12	5.70
O=[N+]([O-])c1cc(/C=N/Nc2nc3ccccc3[nH]2)c(O)cc1O	4.88
Cc1ccc(N=C2NC(=O)/C(=C/C=C/c3ccco3)S2)cc1	5.15
CNc1ccc(Br)cc(C(=O)/C=C/c2cc(OC)ccc2OC)c1=O	5.76
CCN(c1ccc(NC(=O)CCNC(=O)c2ccco2)cc1)C(C)C	< 4.27
N#Cc1c(NC(=O)CSc2ncnc3sccc23)oc(-c2ccco2)c1-c1ccco1	5.49
CCOC(=O)C1=C(O)/C(=C/c2cc(OC)c(O)c(OC)c2)SC1=Nc1ccc(OC)cc1	< 4.27
O=C(N/N=C/c1ccc(O)cc1O)c1ccc(CN2C(=O)c3cccc4cccc2c34)cc1	5.89
COc1cc(SSc2cc(OC)cc([N+](=O)[O-])c2N)c(N)c([N+](=O)[O-])c1	> 6.40
C=CCN1C(=O)/C(=C2/C(=O)N(CC(=O)O)c3ccccc32)S/C1=N/c1nccs1	> 6.40
COC(=O)C1=Nc2ccccc2/C1=C\c1c(O)n(-c2ccc(Br)cc2)c(=O)[nH]c1=O	5.13
Cc1ccc2c(c1Cl)NC(C(=O)O)C1CC(Sc3ccccc3[N+](=O)[O-])C(Cl)C21 (stereo not given)	5.60
Cc1nc(COC(=O)c2cc(O)c3ccccc3c2O)cs1	> 6.40
O=[N+]([O-])c1cc(Br)c(O)c(/C=N/Nc2nc3ccccc3s2)c1	> 6.40
Cc1cccc(NC2=C(NC(=O)c3ccccc3)C(=O)c3ccccc3C2=O)c1	5.47
O=C(Nc1ccc(Cl)cc1)N1CCc2[nH]c3ccccc3c2C1	< 4.27
O=C1NC(=S)/C(=C\c2ccc(-c3ccccc3Cl)o2)S1	5.67
Cc1n[nH]c(=S)n(NC(=O)/C=C/C(=O)Nn2c(=S)[nH]nc(C)c2=O)c1=O	> 6.40
Cc1ccc(N=C2NC(=O)/C(=C/C=C/c3ccco3)S2)cc1C	5.34
COc1cccc(/C=N/Nc2ncnc3c2[nH]c2ccc(C)cc23)c1OC	5.38
FC(F)(F)C1=CC(c2ccccc2)=NCCN1	< 4.27
Cc1ccc2c(c1)c1ccc3c(c1n2C)C(=O)C=CC3=O	> 6.40
CN(C)c1ccc(NC(=O)c2ccc(COc3cccc(Cl)c3)o2)cc1	> 6.40
